Measured values: a melting point compilation (Tetko et al.; mined from patent text by program, amines drawn as free bases though some values may be those of a salt)

| Structure (SMILES) | melting point [°C] |
| --- | --- |
| Clc1ncnc2cc3c(cc12)OCCO3 | 169 to 174 |
| CN(C(=O)c1cccc(C(=C2CC3CCC(C2)N3C)c2ccccc2)c1)c1cccc(F)c1 | 122 to 125 |
| COC(=O)/C=C1\CCc2cc(C(C)(C)C)ccc21 | 116 to 118 |
| O=C(NC/C=C\COc1cc(CN2CCCCC2)ccn1)NC1CCCCC1 | 131 to 132 |
| COC(=O)c1ccc(OCC(O)CNC(C)(C)C)cc1 (stereo not given) | 88 to 89 |
| CCC(=O)C(C=O)=Cc1cc(O)c(O)c(C#N)c1 | 228 to 232 |
| COC(=O)CCC(=O)c1ccc(Br)cc1 | 49 to 51 |
| CNC(=O)c1ccc(C=CC(=O)NCC(=O)N(C)c2ccc(Cl)c(CO)c2Cl)cc1 | 207 to 211 |
| Cc1nnc2n1-c1ccc(C#CCOc3ccccc3)cc1C(c1ccccc1Cl)=NC2 | 160 to 162 |
| O=C(Nc1ccc(OCCNCC2CC2)cc1)c1c[nH]c2c1C(=O)CCC2 | 234 |
| COC(=O)CCC/C=C\[C@@H]1C[C@@H](NS(=O)(=O)c2ccc(Cl)cc2)CN1S(=O)(=O)c1ccc(Cl)cc1 | 95 to 96 |
| COCC(=O)Nc1nc(N)nc(NC2CC2)n1 | 152 to 157 |
| COc1cccc2c1OC(CO)CC2 (stereo not given) | 57 to 58 |
| CSC(Oc1ccc2ncc(I)cc2c1)C(=O)NC(C)(C)C (stereo not given) | 165 to 166 |
| O=C(c1cncc(Br)c1)N1CCOCC1 | 49 to 51 |
| Cc1c(N2CCC(N(C)C)C(C)C2)c(F)cc2c(=O)c(C(=O)O)cn(C3CC3)c12 (stereo not given) | 221 |
| COC(=O)[C@@H](NC(=O)OCc1ccccc1)C(C)C | 54 to 56 |

| Structure (SMILES) | melting point [°C] |
| --- | --- |
| CCOC(=O)c1cc2c(s1)-c1c(SC)sc(C(=O)OCC)c1CC2 | 107 to 108 |
| CCOC(=O)/C=C/c1cnn(C)c1-c1cccs1 | 73 to 74 |
| CC(C)(CF)C(=O)Cn1cncn1 | 59 |
| C#CCONC(=O)c1nc(-c2ccc(Cl)c(OC)c2F)cc(N)c1Cl | 180 to 183 |
| CCOC(=S)c1sc(Cl)nc1C(F)(F)F | 28 to 32 |
| COc1c(OC)c(OC(C)=O)c2cc(Cl)ccc2c1O | 106 to 107 |
| CN(CCC(=O)O)S(=O)(=O)c1c(Cl)cccc1Cl | 115 |
| CC1=C(OCC(C)C)CC(C)(C)C1=O | 63 |
| COc1nc(NCS(=O)(=O)c2ccc(C)cc2)nc(N(C)C)n1 | 188 to 190 |
| COC1(C)COC(C)(OC)CO1 (stereo not given) | 126 to 128 |
| CN(CCOc1ccc([N+](=O)[O-])cc1)CCc1ccc([N+](=O)[O-])cc1 | 74 |
| CCN(CC=C(Cl)Cl)C(=O)Nc1ccc(Cl)c(Cl)c1 | 105 to 106 |
| Cc1c(Nc2c(I)cncc2C#N)ccc2[nH]ccc12 | 192 to 194 |
| CC1(c2n[nH]c(=O)o2)CC1 | 68 to 70 |
| Cc1ccc2c(c1)C(N(CCCCC(=O)O)S(C)(=O)=O)CC(C)(C)O2 (stereo not given) | 190 to 195 |
| CC(=O)C1(OC=O)CCC2C3CCC4=CC(=O)C=CC4(C)C3CCC21C (stereo not given) | 201 to 205 |

More lines, now with the values ahead:

| melting point [°C] | Structure (SMILES) |
| --- | --- |
| 61 | COC(=O)c1cccc(-n2cccc2)n1 |
| 80.8 to 81.3 | CCCCc1nc2c(N)nc3ccccc3c2n1CCOCCCc1ccccc1 |
| 197 to 200 | CC(C(=O)O)c1ccc2oc(-c3cccnc3)nc2c1 (stereo not given) |
| 168 to 169 | CN(Cc1ccccc1Sc1nc2ccccc2[nH]1)c1ccccc1 |
| 233 | O=C(Nc1cccc2c1C(=O)c1c-2n[nH]c1-c1ccc(N2CCC(N3CCCCC3)CC2)cc1)NN1CCOCC1 |
| 220 | COC1CSC2=C(SC1)C(OC(=O)N1CCN(C)CC1)N(c1ccc3ccc(C)nc3n1)C2=O (stereo not given) |
| 161 to 162 | Cc1cc(OC(F)F)nc(NC(=O)NS(=O)(=O)c2cccnc2Cl)n1 |
| 173 to 175 | CS(=O)(=O)c1ccc(-c2sc(N3CCCCC3)nc2-c2ccc(F)cc2)cc1 |
| 135 to 140 | CCN1C(=O)N=NC1c1cccc(F)c1 (stereo not given) |
| 175 to 178 | CN1CCc2nc3cc(Cl)ccc3c(NNc3ccccc3)c2C1 |
| 218 to 220 | COc1ccc(Nc2nc(NC3CCCCCC3)nc(Oc3ccc(C=O)cc3)n2)cc1Cl |
| 202 to 204 | Cc1cccc(-c2nc(N)sc2-c2ccc(F)c(-c3ccc(S(C)(=O)=O)cc3)c2)n1 |
| 210 | CC(SC1COC(c2ccc(C(=O)Nc3ccc(C(F)(F)F)cc3)cc2)OC1)C(O)(Cn1cncn1)c1ccc(F)cc1F (stereo not given) |
| 161 to 163 | O=C1C(c2nc3c(cc2O)OCO3)c2ccccc2N1Cc1ccc(C(F)(F)F)o1 (stereo not given) |
| 90 to 95 | CN1CCC(Nc2ccccc2OCc2ccccc2)CC1 |
| 182 to 184 | Cn1cnc2c1C(=O)N1CCN=C1N2Cc1ccc(Cl)cc1 |
| 120 to 123 | Cc1nc(N2CCN(Cc3cccc(C(=O)O)c3)C2=O)sc1C(=O)NCc1ccccc1 |
| 130 to 133 | CN(C)C=CC(=O)c1ccc(OCC(O)CN2CCN(c3cccc(Cl)c3)CC2)cc1 (stereo not given) |
| 80 | CC(=O)N(C1(c2ccc(OCc3ccc4ccccc4n3)cc2)CCCC1)S(=O)(=O)c1ccccc1C |

| melting point [°C] | Structure (SMILES) |
| --- | --- |
| 196 to 198 | Cc1nc(Cn2nc(-c3c(-c4ccccc4)nn4ccccc34)ccc2=O)cs1 |
| 168 to 170 | COC(=O)[C@H](Cc1cc(Cl)c(OCc2cccc3nc(-c4ccccc4)oc23)c(Cl)c1)NC(=O)C(F)(F)F |
| 222 | COc1ccc2oc3ccc([N+](=O)[O-])cc3c2c1C(=O)Nc1ccncc1 |
| 136 to 139 | CCOC(=O)Cc1ccc(NC(=O)C(COc2cccnc2)NS(=O)(=O)c2ccc(Cl)cc2)cc1 (racemic) |
| 234 to 235 | CCn1nc2c(N)nc3ccccc3c2c1CC(C)(C)N |
| 76 to 80 | O=C(C[C@H](NC(=O)OCc1ccccc1)C(=O)Nc1cc(Cc2n[nH]c(=O)c3ccccc23)ccc1F)OCc1ccccc1 |
| 150 | O=C(Nc1ccccc1)Nc1cccc(-c2ccc(CC34CCCN3C(=O)N(c3cc(Cl)cc(Cl)c3)C4=O)cc2)c1 (stereo not given) |
| 78 to 82 | O=C(O)C(Cc1ccccc1)Oc1ccc2cc(-c3cnc(Cc4ccccc4)o3)ccc2c1 (stereo not given) |
| 136 to 137 | COc1ccccc1CCN(CCCCC(=O)c1ccc2c(c1)CCN2C(=O)Nc1ccccc1)C(=O)OC(C)(C)C |
| 219 to 227 | CN1CCN(CCC/C=C/c2ccc3c(Nc4ccc(Sc5nccn5C)c(Cl)c4)c(C#N)cnc3c2)CC1 |
| 248 to 250 | c1ccc2c(c1)CCc1c-2noc1N1CCN(Cc2c[nH]c3ncccc23)CC1 |
| 182 | Cc1ccc(-c2c(Cl)ncn2-c2ccc(S(C)(=O)=O)cc2)cc1 |
| 149 | O=C(Nc1cccnc1)NC(CS)Cc1ccccc1 (single isomer, unassigned; (+)) |
| 164 | CC(C)(CCCc1cccnc1)NC(=O)/C=C/C=C(c1ccc(F)cc1)c1ccc(F)cc1 |
| 157 to 158 | O=C1CN(c2ccccc2)C(=O)N1C(=O)c1cccc(Oc2ccccc2)c1 |
| 205 to 208 | COc1ccc([C@H]2Cc3c(cccc3C(F)(F)F)NC(=O)[C@H]2O)cc1 (relative stereo) |
| 90 to 91 | C(=C\c1nc(COc2ccc(CCCCCCn3cncn3)cc2)co1)/c1ccccc1 |
| 128 to 131 | O=C(O)COc1c(-c2cccc(Cl)c2)cc(C(=O)NCCCCCCCCOCc2ccc(Cl)cc2)cc1-c1cccc(Cl)c1 |
